According to patent publication US20220096484A1, “METHODS AND COMPOSITIONS FOR TREATING CANCER BY TARGETING FATP2 AND MYELOID DERIVED SUPPRESSOR CELLS” (The Wistar Institute of Anatomy and Biology, priority 2019, published 2022):

Experiments:
EL-4 tumor cells = assay: MTT assay after three-day incubation of tumor cells with lipofermata; format: cell-based; conditions: EL-4 cells, range of concentrations corresponding to the dose used in vivo (0.2 mg/ml)
Experimental: (§1) FIGS. 13A-FIG. 13E show the effect of lipofermata treatment on tumor-bearing mice. FIG. 13A, MTT assay after three-day incubation of tumor cells with indicated concentration of lipofermata. FIG. 13B, Percentage and absolute number of tumor-associated antigen (E7-derived peptide)-specific CD8^+ T cells in draining lymph nodes of mice bearing TC-1 tumor and treated with lipofermata (n=3). FIG. 13C, Growth of TC-1 tumors in mice treated with CTLA4 antibody and lipofermata (n=5). FIG. 13D, CD8^+ T cell infiltration of TC-1 tumors in mice treated with CTLA4 antibody and lipofermata. FIG. 13E, Growth of TC-1 tumors in mice treated with PD1 antibody and lipofermata (n=5). Data are mean±s.d. *P<0.05, **P<0.01, ***P<0.001, ****P<0.0001, two-sided Student's t-test (FIG. 13B) or two-way ANOVA test with correction for repeated measurements (FIG. 13E).
(§2) Tumor cell lines: EL4 (lymphoma), LLC (Lewis Lung Carcinoma), CT26 (colon carcinoma), TC-1 (HPV16 E6/E7 expressing tumor cell line) were obtained from ATCC and F244 (sarcoma) was kindly provided by Dr. R. Schreiber (Washington University, St. Lois, Mo.). All cells were maintained in DMEM medium supplemented with 10% fetal bovine serum (FBS, Sigma-Aldrich, St. Louis, Mo.) at 37° C., 5% CO2. Tumor cells were injected subcutaneously (s.c.) at 5×10^5 cells per mouse. […]

LLC tumor cells = assay: as above; format: cell-based; conditions: range of concentrations corresponding to the dose used in vivo (0.2 mg/ml)
Experimental: as §1, §2

tumors in C57BL/6 mice = assay: Growth of tumors in C57BL/6 mice treated with lipofermata (four tumor models); format: in vivo, mouse; conditions: four tested tumor models, lipofermata 2 mg/kg twice per day s.c., started 8-10 days after tumor injection
Experimental: FIG. 4A-FIG. 4E, Treatments with lipofermata (2 mg kg^−1 twice per day subcutaneously) started 8-10 days after tumor injection. Anti-CTLA4 antibody (200 μg per mouse, intraperitoneally) was administrated at days 7 and 11 after tumor injection, and anti-CSF1R antibody ([…] per mouse, intraperitoneally) was administered every other day, starting the day after tumor injection. FIG. 4A, Growth of indicated tumors in C57BL/6 mice treated with lipofermata. Representative of two independent experiments (n=4-5 mice per group). FIG. 4B, Growth of LLC tumors in NOD-SCID mice treated with lipofermata (n=5). FIG. 4C, Growth of LLC tumors in mice depleted of CD8 T cells and treated with lipofermata (n=5). FIG. 4D, Growth of LLC tumors in mice treated with anti-CTLA4 antibody and lipofermata (n=5). FIG. 4E, Growth of LLC tumors in mice treated with CSF1R inhibitor and lipofermata (n=5). Data are mean±se.m. *P<0.05, **P<0.01, ***P<0.001, ****P<0.0001 (differences from untreated […] and between treated groups), two-way ANOVA with corrections for multiple comparison. NS, not significant. […]
(§3) Statistical analysis was performed using unpaired two-tailed Student's t-test with significance determined at 0.05. […] Tumor growth was evaluated using two-way Anova test with Bonferroni correction for multiple comparisons.

LLC tumors = assay: Growth of LLC tumors in mice (lipofermata alone, CD8 T cell depletion, combination with antibodies); format: in vivo, mouse
Experimental: (§4) FIG. 4A-FIG. 4E, Treatments with lipofermata (2 mg kg^−1 twice per day subcutaneously) started 8-10 days after tumor injection. Anti-CTLA4 antibody (200 μg per mouse, intraperitoneally) was administrated at days 7 and 11 after tumor injection, and anti-CSF1R antibody ([…] per mouse, intraperitoneally) was administered every other day, starting the day after tumor injection. FIG. 4A, Growth of indicated tumors in C57BL/6 mice treated with lipofermata. Representative of two independent experiments (n=4-5 mice per group). FIG. 4B, Growth of LLC tumors in NOD-SCID mice treated with lipofermata (n=5). FIG. 4C, Growth of LLC tumors in mice depleted of CD8 T cells and treated with lipofermata (n=5). FIG. 4D, Growth of LLC tumors in mice treated with anti-CTLA4 antibody and lipofermata (n=5). FIG. 4E, Growth of LLC tumors in mice treated with CSF1R inhibitor and lipofermata (n=5). Data are mean±se.m. *P<0.05, **P<0.01, ***P<0.001, ****P<0.0001 (differences from untreated […] and between treated groups), two-way ANOVA with corrections for multiple comparison. NS, not significant.
5×10^5 tumor cells were injected s.c. into mice, which formed tumors with a 1.5-cm diameter within 2-3 weeks of injection. Lipofermata was administrated s.c. at dose of 2 mg/kg twice per day. As a control, mice were treated with vehicle alone (DMSO+30% v/v Kolliphor). Treatments with lipofermata started 8-10 days after tumors injections. CSF1R antibody (BioXcell, 300 μg/mouse) was administered every other day starting next day after tumor injection and continued until the mice were sacrificed. PD-1 antibody (clone RMP1-14, BioXcell, 200 μg/mouse) was administered twice a week started 10-12 days after tumor injection. CTLA4-IgG2a (BioXcell, 200 μg/mouse) was administered at day 7 and day 11.
as §3

[1] = test system: LLC tumors in NOD-SCID mice; assay: Growth of LLC tumors in NOD-SCID mice treated with lipofermata; format: in vivo, mouse; conditions: lipofermata 2 mg/kg twice per day s.c.
Experimental: as §4
5×10^5 tumor cells were injected s.c. into mice, which formed tumors with a 1.5-cm diameter within 2-3 weeks of injection. Lipofermata was administrated s.c. at dose of 2 mg/kg twice per day. As a control, mice were treated with vehicle alone (DMSO+30% v/v Kolliphor). […]

[2] = test system: tumor-associated antigen (E7-derived peptide)-specific CD8+ T cells; assay: Antigen specific CD8 T cells in draining lymph nodes of TC-1 tumor-bearing mice (MHC tetramer flow cytometry); format: in vivo, mouse; conditions: TC-1 model; lipofermata treatment
Experimental: as §1, with “Data are mean±s.d. *P<0.05, **P<0.01, ***P<0.001, ****P<0.0001, two-sided Student's t-test (FIG. 13B) or two-way ANOVA test with correction for repeated measurements (FIG. 13E).” left out
Lymph nodes (LNs) were obtained from TB mice and digested for 30 min at 37° C. with collagenase A (0.5 mg/ml; Sigma Aldrich), Dnase I (0.2 mg/ml, Roche), diluted in HBSS with Ca^2+/Mg^2+ and 20 mM EDTA (Invitrogen) was added 5 min at room temperature to stop the reaction. CD8^+ T cells were isolated from LNs of TB mice using EasySep Mouse CD8+ T Cell Enrichment Kit (STEMCELL) and stimulated with anti CD3 and anti CD28 antibodies (BD Biosciences) for 24 h and IFNγ was analyzed by ELISpot (Mabtech), accordingly to manufacturer's instructions. T cell proliferation was evaluated by flow cytometry using CSFE (BioLegend). […]

Structure (SMILES): O=C1Nc2ccc(Br)cc2C12NN=C(c1ccccc1)S2 (stereo not drawn) [lipofermata, 5′-bromo-5-phenyl-spiro[3H-1,3,4-thiadiazole-2,3′-indoline]-2′-one]
- proliferation of tumor cells in vitro (MTT) (EL-4 tumor cells): did not affect proliferation
- proliferation of tumor cells in vitro (MTT) (LLC tumor cells): did not affect proliferation
- tumor growth (tumors in C57BL/6 mice): significant delay of tumor growth
- antitumor effect (LLC tumor growth) (LLC tumors; LLC bearing mice, lipofermata 2 mg/kg twice per day s.c., anti-CTLA4 200 μg/mouse days 7 and 11, CSF1R antibody 300 μg/mouse every other day): had an antitumor effect
- blocking of tumor progression (LLC tumors; LLC bearing mice, single agents): neither blocked tumor progression
- tumor growth effect after depletion of CD8+ T cells (LLC tumors; LLC tumors, immune competent mice depleted of CD8 T cells, lipofermata 2 mg/kg twice per day s.c.): abrogated the effect of lipofermata
- tumor growth delay effect in immune deficient mice [1]: this effect was absent
- absolute numbers of antigen specific T cells in draining lymph nodes [2]: increased
- percentage of antigen specific T cells in draining lymph nodes [2]: increased
